Reference: patent US12492188B2, “1H-benzo[D]imidazole derivatives as TLR9 inhibitors for the treatment of fibrosis” (BRISTOL-MYERS SQUIBB COMPANY, priority 2020, dated 2025)
Where two headings read alike, the source gives them in different places.

Key:
Format in all cases: cell-based
human TLR8 = target: T1, human TLR8 (Homo sapiens, UniProt Q9NR97); assay: TLR8 inhibition reporter assay (HEK-Blue cells, secreted embryonic alkaline phosphatase reporter); conditions: HEK-Blue cells overexpressing human TLR8, stimulated with R848 15.9 μM; read-out: TLR 8 IC50
T1 construct: host or cells: HEK-Blue cells (HEK293-derived reporter line)
T1 sequence (Q9NR97 27-1041): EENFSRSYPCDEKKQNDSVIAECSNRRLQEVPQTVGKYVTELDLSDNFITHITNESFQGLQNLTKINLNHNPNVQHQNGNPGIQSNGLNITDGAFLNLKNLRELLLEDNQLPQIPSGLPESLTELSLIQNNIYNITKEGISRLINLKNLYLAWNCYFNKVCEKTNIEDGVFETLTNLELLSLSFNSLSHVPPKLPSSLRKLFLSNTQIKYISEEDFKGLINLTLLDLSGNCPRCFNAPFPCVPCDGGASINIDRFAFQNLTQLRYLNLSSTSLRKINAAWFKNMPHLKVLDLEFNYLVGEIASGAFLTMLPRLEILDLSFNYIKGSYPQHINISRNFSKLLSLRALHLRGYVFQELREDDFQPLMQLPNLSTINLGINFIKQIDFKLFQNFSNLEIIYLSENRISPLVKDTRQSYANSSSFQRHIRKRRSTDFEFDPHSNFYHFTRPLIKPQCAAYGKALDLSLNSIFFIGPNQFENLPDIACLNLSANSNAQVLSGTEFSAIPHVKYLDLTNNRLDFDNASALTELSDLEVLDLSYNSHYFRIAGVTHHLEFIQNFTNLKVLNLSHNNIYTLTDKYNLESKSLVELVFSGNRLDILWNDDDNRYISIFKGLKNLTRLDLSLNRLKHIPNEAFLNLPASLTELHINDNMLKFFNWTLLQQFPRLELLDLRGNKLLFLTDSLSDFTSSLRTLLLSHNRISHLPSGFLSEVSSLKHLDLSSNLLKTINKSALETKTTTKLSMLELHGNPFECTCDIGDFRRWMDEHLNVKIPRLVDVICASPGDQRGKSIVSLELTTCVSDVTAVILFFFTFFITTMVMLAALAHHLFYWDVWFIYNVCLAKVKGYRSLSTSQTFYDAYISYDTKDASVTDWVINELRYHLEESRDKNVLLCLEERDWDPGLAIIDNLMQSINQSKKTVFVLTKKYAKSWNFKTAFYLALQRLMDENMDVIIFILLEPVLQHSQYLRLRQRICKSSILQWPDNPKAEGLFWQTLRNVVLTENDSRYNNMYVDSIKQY
How it was run: (§1)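 HEK-Blue cells overexpressing the respective receptor, with an NF-κB/AP-1-driven SEAP reporter, were pre-treated with compound (0.05 nM–50 μM) for 30 min at room temperature. Stimulation used gardiquimod 7.5 μM (TLR7), R848 15.9 μM (TLR8) or ODN2006 5 nM (TLR9); SEAP was read after 22 h at 37 °C as percent inhibition.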

human TLR9 = target: T2, human TLR9 (Homo sapiens, UniProt Q9NR96); assay: TLR9 inhibition reporter assay (HEK-Blue cells, secreted embryonic alkaline phosphatase reporter); conditions: HEK-Blue cells overexpressing human TLR9, stimulated with ODN2006 5 nM
T2 construct: host or cells: HEK-Blue cells (HEK293-derived reporter line)
T2 sequence (Q9NR96 26-1032): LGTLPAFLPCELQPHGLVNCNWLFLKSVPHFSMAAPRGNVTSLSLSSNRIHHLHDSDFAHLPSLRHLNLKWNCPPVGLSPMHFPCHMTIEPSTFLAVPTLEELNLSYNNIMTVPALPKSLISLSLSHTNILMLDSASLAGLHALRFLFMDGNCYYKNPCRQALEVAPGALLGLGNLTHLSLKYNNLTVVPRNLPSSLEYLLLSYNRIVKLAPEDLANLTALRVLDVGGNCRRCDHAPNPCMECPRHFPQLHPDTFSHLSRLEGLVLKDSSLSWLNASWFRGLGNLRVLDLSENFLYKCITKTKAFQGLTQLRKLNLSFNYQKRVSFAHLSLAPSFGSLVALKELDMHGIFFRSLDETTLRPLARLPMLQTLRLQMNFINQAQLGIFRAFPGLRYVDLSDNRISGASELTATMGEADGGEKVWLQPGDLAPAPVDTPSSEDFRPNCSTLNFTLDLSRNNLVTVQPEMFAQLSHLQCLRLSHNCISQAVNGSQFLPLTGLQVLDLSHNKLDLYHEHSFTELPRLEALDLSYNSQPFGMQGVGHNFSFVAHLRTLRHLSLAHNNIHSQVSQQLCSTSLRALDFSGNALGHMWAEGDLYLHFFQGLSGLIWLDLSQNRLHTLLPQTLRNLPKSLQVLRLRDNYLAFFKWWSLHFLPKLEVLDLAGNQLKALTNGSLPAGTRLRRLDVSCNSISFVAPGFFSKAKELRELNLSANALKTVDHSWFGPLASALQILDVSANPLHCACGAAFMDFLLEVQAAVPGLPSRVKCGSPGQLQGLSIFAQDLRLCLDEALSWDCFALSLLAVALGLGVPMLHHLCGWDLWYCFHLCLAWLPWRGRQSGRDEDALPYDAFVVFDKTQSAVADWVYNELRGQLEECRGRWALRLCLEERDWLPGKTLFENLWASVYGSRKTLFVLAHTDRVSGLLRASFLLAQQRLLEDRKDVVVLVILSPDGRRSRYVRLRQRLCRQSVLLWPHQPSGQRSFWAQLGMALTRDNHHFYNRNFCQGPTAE
How it was run: as §1

human TLR7 = target: T3, human TLR7 (Homo sapiens, UniProt Q9NYK1); assay: TLR7 inhibition reporter assay (HEK-Blue cells, secreted embryonic alkaline phosphatase reporter); conditions: HEK-Blue cells overexpressing human TLR7, stimulated with gardiquimod 7.5 μM; read-out: TLR 7 IC50
T3 construct: host or cells: HEK-Blue cells (HEK293-derived reporter line)
T3 sequence (Q9NYK1 27-1049): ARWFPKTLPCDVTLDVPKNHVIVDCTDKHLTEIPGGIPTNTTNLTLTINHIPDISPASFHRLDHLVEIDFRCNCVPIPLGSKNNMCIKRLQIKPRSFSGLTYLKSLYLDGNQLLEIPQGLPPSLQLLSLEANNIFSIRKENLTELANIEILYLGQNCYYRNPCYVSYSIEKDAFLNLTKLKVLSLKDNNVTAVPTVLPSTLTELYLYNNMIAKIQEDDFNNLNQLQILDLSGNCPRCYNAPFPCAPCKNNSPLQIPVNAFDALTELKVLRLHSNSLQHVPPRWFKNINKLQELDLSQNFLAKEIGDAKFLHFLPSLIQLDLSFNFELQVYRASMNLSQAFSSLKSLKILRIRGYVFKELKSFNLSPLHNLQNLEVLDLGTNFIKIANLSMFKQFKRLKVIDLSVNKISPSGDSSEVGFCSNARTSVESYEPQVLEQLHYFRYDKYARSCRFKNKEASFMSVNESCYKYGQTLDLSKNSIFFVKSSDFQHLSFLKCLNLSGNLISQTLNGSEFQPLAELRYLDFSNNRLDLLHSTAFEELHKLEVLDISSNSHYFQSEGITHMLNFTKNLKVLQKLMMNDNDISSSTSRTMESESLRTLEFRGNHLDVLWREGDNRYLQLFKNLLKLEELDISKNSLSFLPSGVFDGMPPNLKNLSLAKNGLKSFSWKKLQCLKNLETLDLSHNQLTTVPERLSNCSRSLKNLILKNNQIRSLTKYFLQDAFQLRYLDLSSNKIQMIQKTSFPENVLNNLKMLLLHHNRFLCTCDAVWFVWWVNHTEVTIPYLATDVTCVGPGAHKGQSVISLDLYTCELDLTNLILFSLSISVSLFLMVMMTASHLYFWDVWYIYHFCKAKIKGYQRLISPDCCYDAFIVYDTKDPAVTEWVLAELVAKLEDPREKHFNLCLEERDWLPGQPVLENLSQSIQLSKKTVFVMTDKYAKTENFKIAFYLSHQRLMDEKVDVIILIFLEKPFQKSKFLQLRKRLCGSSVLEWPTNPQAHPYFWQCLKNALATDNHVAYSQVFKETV
How it was run: as §1

[1] = 22 hour incubation, reporter readout

Row | IC50 (human TLR8) [nM] | IC50 (human TLR9; [1]) [nM] | IC50 (human TLR9; read-out: TLR 9 IC50) [nM] | IC50 (human TLR7) [nM] | SMILES
1 | 1800 | 330 | 327 | 300 | CCN1CCCN(Cc2ccc(-c3cc(C)c4nc(-c5ccc(S(C)(=O)=O)cc5)n(C)c4c3)cc2F)CC1 [Example 389, 6-(4-((4-ethyl-1,4-diazepan-1-yl)methyl)-3-fluorophenyl)-1,4-dimethyl-2-(4-(methylsulfonyl)phenyl)-1H-benzo[d]imidazole]
2 | 10200 | 91 | 91 | 4200 | Cc1cc(-c2ccc(CN3CCC(N(C)C)CC3)c(F)c2)cc2c1nc(-c1ccc(S(C)(=O)=O)cc1)n2C [Example 390, 1-(4-(1,4-dimethyl-2-(4-(methylsulfonyl)phenyl)-1H-benzo[d]imidazol-6-yl)-2-fluorobenzyl)-N,N-dimethylpiperidin-4-amine]
3 | 11700 | 180 | 178 | 2100 | Cc1cc(-c2cc(F)c(CN3CCC(N4CCCC4)CC3)c(F)c2)cc2c1nc(-c1ccc(S(C)(=O)=O)cc1)n2C [Example 391, 6-(3,5-difluoro-4-((4-(pyrrolidin-1-yl)piperidin-1-yl)methyl)phenyl)-1,4-dimethyl-2-(4-(methylsulfonyl)phenyl)-1H-benzo[d]imidazole]
4 | 6400 | 470 | 466 | 10200 | Cc1cc(-c2cc(F)c(CN3CCC(N(C)C)CC3)c(F)c2)cc2c1nc(-c1ccc(S(C)(=O)=O)cc1)n2C [Example 392, 1-(4-(1,4-dimethyl-2-(4-(methylsulfonyl)phenyl)-1H-benzo[d]imidazol-6-yl)-2,6-difluorobenzyl)-N,N-dimethylpiperidin-4-amine]
5 | 9500 | 330 | 334 | > 50000 | Cc1cc(-c2ccc(CN3CCC(N(C)C4CC4)CC3)cc2)cc2c1nc(-c1ccc(S(C)(=O)=O)cc1)n2C [Example 393, N-cyclopropyl-1-(4-(1,4-dimethyl-2-(4-(methylsulfonyl)phenyl)-1H-benzo[d]imidazol-6-yl)benzyl)-N-methylpiperidin-4-amine]
6 | 5700 | 560 | 563 | > 50000 | Cc1cc(-c2ccc(CN3CCC(N(C)C4CC4)CC3)c(F)c2)cc2c1nc(-c1ccc(S(C)(=O)=O)cc1)n2C [Example 394, N-cyclopropyl-1-(4-(1,4-dimethyl-2-(4-(methylsulfonyl)phenyl)-1H-benzo[d]imidazol-6-yl)-2-fluorobenzyl)-N-methylpiperidin-4-amine]
7 | 2700 | 97 | 97 | 1000 | Cc1cc(-c2ccc(CN3CC4(C3)CN(C(C)C)C4)cc2)cc2c1nc(-c1ccc(S(C)(=O)=O)cc1)n2C [Example 399, 6-(4-((6-isopropyl-2,6-diazaspiro[3.3]heptan-2-yl)methyl)phenyl)-1,4-dimethyl-2-(4-(methylsulfonyl)phenyl)-1H-benzo[d]imidazole]
8 | 1300 | 76 | 76 | 1500 | Cc1cc(-c2ccc(C3CCN(C4CCN(C)CC4)CC3)cc2)cc2c1nc(-c1ccc(S(C)(=O)=O)cc1)n2C [Example 400, 1,4-dimethyl-6-(4-(1′-methyl-[1,4′-bipiperidin]-4-yl)phenyl)-2-(4-(methylsulfonyl)phenyl)-1H-benzo[d]imidazole]
9 | 1200 | 100 | 104 | 2700 | Cc1cc(-c2ccc(C3CCN(C4CCN(C5CC5)CC4)CC3)cc2)cc2c1nc(-c1ccc(S(C)(=O)=O)cc1)n2C [Example 401, 6-(4-(1′-cyclopropyl-[1,4′-bipiperidin]-4-yl)phenyl)-1,4-dimethyl-2-(4-(methylsulfonyl)phenyl)-1H-benzo[d]imidazole]
10 | 5800 | 3.9 | 3.9 | 600 | Cc1cc(-c2ccc(CN3CCC(N4CCC4)CC3)cc2)cc2c1nc(-c1ccc(S(C)(=O)=O)cc1)n2C [Example 402, 6-(4-((4-(azetidin-1-yl)piperidin-1-yl)methyl)phenyl)-1,4-dimethyl-2-(4-(methylsulfonyl)phenyl)-1H-benzo[d]imidazole]
11 | 15800 | 81 | 94 | 300 | Cc1cc(-c2ccc(CN3CCC(N4CCC4)CC3)c(F)c2)cc2c1nc(-c1ccc(S(C)(=O)=O)cc1)n2C [Example 403, 6-(4-((4-(azetidin-1-yl)piperidin-1-yl)methyl)-3-fluorophenyl)-1,4-dimethyl-2-(4-(methylsulfonyl)phenyl)-1H-benzo[d]imidazole]
